# In patent publication US12653776B2, “Methods of treatment of cancer by continuous infusion of coenzyme Q10” (priority 2013, dated 2026):
# Test: First-in-human Phase 1 study (CTL0510), 4-hour IV infusion 3 times weekly: safety
# Conditions: in vivo
# Procedure: The first-in-human Phase 1 study with coenzyme Q10 nanosuspension (40 mg/ml) was conducted in 50 patients with advanced solid tumors. The objectives were to assess the safety, maximum tolerated dose, PK and PD of coenzyme Q10, specifically a 4% coenzyme Q10 nanosuspension formulation (as described in WO 2011/112900, the entire contents of which are expressly incorporated herein by reference), administered as a 4-hour IV infusion 3 times weekly in 28-day cycles. Nine dose levels were explored ranting from 5.62 to 139 mg/kg. Plasma concentration profiles and PK parameters were determined from blood samples collected pre-dose and at intervals to 48 hours post-dose.
substance,measurement,value
Vitamin K [reference compound],INR after Vitamin K administration,all INRs decreased to grade 1 or resolved
